Reference: PMC5641481 (Science (New York, N.Y.), 2017)
pIC50: −log10 of the molar value. One block for each compound: values may come before it.

Key:
ABHD11 = target: T1, ABHD11 (Homo sapiens, UniProt Q8NFV4); test: competitive gel-based ABPP, intact HEK293T cells; format: cell-based; conditions: ABHD11, in situ (4 h)
T1 sequence (Q8NFV4 1-306): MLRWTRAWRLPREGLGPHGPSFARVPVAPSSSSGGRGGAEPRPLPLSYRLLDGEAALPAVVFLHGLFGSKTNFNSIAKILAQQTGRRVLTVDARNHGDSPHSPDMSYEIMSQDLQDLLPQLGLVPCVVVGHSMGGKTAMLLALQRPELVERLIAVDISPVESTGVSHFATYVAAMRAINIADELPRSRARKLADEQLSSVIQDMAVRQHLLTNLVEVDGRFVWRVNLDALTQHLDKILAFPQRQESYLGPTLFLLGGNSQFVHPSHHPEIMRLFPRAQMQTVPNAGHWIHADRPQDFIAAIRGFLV

CES2 = target: T2, CES2 (Homo sapiens, UniProt O00748); test: competitive gel-based ABPP, intact HEK293T cells; format: cell-based; conditions: CES2, in situ (4 h)
T2 sequence (O00748 27-559): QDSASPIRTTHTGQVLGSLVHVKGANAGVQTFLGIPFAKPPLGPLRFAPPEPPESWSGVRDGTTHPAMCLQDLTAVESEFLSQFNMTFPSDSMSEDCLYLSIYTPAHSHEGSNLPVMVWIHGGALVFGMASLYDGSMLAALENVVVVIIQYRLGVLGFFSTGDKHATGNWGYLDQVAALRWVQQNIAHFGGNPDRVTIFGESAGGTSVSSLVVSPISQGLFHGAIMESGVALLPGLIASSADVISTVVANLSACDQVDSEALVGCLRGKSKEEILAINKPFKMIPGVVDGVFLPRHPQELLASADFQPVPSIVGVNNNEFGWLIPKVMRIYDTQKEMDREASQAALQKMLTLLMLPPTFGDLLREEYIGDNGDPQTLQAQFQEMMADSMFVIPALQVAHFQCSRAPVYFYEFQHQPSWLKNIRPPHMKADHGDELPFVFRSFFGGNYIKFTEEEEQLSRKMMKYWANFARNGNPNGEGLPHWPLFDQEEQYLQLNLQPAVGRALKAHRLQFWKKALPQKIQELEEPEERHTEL

FAAH [1] = target: T3, FAAH (Homo sapiens, UniProt O00519); test: MS-based ABPP in SW620 cells; format: cell-based; conditions: all tested concentrations (0.2, 10, and 50 μM)
T3 sequence (O00519 1-579): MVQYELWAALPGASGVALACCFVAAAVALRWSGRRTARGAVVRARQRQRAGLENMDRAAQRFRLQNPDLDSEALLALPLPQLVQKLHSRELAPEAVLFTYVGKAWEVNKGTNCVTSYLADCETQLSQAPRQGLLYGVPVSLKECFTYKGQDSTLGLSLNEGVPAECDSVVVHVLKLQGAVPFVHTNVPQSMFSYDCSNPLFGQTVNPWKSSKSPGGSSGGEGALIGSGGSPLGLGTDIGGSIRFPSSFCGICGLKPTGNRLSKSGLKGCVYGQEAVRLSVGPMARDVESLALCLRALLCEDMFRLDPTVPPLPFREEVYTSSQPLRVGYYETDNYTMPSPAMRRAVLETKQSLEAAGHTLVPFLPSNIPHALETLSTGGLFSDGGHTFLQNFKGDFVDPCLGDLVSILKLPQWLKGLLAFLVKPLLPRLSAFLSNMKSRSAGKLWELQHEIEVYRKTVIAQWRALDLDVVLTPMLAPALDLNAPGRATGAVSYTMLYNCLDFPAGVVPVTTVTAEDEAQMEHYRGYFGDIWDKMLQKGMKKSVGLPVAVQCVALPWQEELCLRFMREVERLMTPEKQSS

FAAH [2] = target: T3, FAAH; test: anandamide substrate hydrolysis assay, HEK293T cell lysates; format: biochemical; conditions: in vitro
FAAH [3] = target: T3, FAAH; test: competitive gel-based ABPP, intact HEK293T cells; format: cell-based; conditions: in situ (4 h)
FAAH2 = target: T4, FAAH2 (Homo sapiens, UniProt Q6GMR7); test: competitive gel-based ABPP, intact HEK293T cells; format: cell-based; conditions: FAAH2, in situ (4 h)
T4 sequence (Q6GMR7 1-532): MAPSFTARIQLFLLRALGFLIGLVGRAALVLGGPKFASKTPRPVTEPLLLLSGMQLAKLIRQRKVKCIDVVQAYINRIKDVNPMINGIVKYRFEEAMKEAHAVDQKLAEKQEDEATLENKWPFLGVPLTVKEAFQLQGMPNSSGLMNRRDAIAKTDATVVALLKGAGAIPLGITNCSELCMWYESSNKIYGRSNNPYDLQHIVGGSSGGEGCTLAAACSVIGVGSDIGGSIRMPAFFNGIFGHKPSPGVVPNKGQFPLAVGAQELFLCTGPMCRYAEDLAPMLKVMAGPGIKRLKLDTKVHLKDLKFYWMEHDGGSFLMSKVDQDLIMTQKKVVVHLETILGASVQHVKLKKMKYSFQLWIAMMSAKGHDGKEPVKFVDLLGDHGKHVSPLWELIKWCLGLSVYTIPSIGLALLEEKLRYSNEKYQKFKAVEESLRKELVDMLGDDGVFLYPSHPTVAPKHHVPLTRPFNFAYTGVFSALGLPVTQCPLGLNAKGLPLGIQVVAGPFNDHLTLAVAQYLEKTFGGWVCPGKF

FAAH [4] = target: T3, FAAH; test: competitive gel-based ABPP, HEK293T cell lysates; format: biochemical; conditions: in vitro, HEK293T recombinantly expressing human enzyme
ABHD6 [5] = target: T5, ABHD6 (Homo sapiens, UniProt Q9BV23); test: competitive gel-based ABPP, intact HEK293T cells; format: cell-based; conditions: ABHD6, in situ (4 h)
T5 sequence (Q9BV23 1-337): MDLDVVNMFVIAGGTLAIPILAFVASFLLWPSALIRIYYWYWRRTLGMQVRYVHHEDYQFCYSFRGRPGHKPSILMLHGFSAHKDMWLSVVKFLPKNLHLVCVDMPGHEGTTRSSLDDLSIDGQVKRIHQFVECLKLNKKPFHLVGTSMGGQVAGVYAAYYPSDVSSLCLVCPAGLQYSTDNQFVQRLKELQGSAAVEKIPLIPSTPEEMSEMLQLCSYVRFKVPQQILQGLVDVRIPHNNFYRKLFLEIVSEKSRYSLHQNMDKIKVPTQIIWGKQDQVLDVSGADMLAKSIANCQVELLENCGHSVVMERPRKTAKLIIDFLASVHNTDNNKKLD

PNPLA6 = PNPLA6 (Homo sapiens, UniProt Q8IY17); conditions: PNPLA6, in situ (24 h), gel-based ABPP, HEK293T
PNPLA6, sequence (Q8IY17 whole entry): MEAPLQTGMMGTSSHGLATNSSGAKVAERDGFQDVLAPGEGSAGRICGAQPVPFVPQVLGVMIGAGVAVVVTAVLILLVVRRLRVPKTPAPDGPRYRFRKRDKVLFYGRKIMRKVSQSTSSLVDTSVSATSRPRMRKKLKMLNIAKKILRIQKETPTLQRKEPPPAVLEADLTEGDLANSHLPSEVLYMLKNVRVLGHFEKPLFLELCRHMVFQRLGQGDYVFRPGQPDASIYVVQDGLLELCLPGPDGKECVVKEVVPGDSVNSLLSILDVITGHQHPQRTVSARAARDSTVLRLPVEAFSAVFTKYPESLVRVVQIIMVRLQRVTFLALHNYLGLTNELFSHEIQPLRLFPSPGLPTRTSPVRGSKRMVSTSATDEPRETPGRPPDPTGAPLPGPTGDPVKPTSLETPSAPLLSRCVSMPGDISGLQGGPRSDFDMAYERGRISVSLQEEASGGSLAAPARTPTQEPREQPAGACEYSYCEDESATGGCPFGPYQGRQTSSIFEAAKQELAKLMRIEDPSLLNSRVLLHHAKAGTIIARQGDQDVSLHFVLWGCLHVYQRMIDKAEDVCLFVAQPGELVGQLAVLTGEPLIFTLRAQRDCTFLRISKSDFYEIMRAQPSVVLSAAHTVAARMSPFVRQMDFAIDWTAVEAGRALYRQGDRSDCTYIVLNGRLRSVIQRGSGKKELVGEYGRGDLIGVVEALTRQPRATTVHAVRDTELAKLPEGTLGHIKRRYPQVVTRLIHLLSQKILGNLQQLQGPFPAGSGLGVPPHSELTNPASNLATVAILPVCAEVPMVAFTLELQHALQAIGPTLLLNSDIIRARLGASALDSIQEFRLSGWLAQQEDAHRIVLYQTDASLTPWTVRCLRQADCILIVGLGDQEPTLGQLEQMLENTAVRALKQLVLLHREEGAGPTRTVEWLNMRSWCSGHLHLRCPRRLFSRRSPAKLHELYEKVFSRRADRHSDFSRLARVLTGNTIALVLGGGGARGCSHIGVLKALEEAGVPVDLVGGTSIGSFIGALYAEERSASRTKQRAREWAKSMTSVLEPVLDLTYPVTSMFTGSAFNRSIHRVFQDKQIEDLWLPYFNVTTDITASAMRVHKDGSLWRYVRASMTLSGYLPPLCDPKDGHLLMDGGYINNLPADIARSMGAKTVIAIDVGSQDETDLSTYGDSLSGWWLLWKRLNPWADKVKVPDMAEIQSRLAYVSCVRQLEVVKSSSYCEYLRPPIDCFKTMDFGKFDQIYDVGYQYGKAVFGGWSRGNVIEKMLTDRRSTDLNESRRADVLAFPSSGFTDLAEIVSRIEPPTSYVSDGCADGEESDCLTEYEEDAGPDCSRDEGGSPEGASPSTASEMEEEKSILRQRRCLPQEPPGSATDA

[6] = system: other proteins of the endocannabinoid system, endocannabinoid-binding TRP ion channels; test: interaction with other endocannabinoid system proteins and TRP channels
FAAH [7] = target: T3, FAAH; test: ABPP of human frontal cortex proteome; format: biochemical; conditions: human frontal cortex proteome (post-mortem)
ABHD6 [8] = target: T5, ABHD6; test: ABPP of human frontal cortex proteome; format: biochemical; conditions: human frontal cortex proteome (post-mortem)
rat FAAH = target: T6, rat FAAH (Rattus norvegicus, UniProt P97612); test: substrate hydrolysis assay; format: biochemical; conditions: in vitro
T6 sequence (P97612 1-579): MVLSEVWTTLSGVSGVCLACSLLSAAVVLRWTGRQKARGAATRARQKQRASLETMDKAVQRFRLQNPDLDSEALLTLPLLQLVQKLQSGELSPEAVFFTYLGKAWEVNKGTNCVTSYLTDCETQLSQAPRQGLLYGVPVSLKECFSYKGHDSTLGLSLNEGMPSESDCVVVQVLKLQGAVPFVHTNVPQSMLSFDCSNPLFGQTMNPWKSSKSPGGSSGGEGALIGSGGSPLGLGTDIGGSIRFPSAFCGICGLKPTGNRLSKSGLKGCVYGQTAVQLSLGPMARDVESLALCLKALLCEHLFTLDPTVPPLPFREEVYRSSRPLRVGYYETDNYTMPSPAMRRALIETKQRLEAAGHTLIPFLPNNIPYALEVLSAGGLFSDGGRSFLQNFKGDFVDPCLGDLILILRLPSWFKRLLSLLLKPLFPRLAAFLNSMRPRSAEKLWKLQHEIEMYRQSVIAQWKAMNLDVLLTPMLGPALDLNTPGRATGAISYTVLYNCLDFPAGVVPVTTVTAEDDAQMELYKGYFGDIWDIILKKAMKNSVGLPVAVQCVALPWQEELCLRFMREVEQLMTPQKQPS

ABHD6 [9] = target: T5, ABHD6; test: MS-based ABPP in SW620 cells; format: cell-based
FAAH [10] = target: T3, FAAH; test: anandamide substrate hydrolysis assay, intact transfected HEK293T cells; format: cell-based; conditions: human FAAH in transfected HEK293T cells, in situ

SMILES: O=C(Nc1cccnn1)N1CCC(=Cc2cccc(Oc3ccc(C(F)(F)F)cn3)c2)CC1 [PF04457845]
- pIC50 (ABHD11): < 5.00
- pIC50 (CES2): < 5.00
- engagement of human FAAH (FAAH [1]): fully engaged
- pIC50 (FAAH [2]; FAAH): 8.00 to 9.00
- pIC50 (FAAH [3]): 7.96
- pIC50 (FAAH2): 6.23
- pIC50 (FAAH [4]): 8.40
- pIC50 (ABHD6 [5]): < 5.00
- pIC50 (PNPLA6): < 4.30
- interaction with other proteins of the endocannabinoid system or endocannabinoid-binding TRP ion channels [6]: did not interact

SMILES: CN(C(=O)n1cnc(-c2ccc[n+]([O-])c2)c1)C1CCCCC1 [BIA 10-2474]
- cross-reactivity with FAAH (FAAH [7]): cross-reactivity
- pIC50 (ABHD11): < 5.00
- cross-reactivity with ABHD6 (ABHD6 [8]): cross-reactivity
- pIC50 (rat FAAH): ≤ 6.00
- engagement of human FAAH (FAAH [1]): fully engaged
- inhibition of ABHD6 (ABHD6 [9]; 10 μM, 4 h): > 90%
- inhibition of ABHD6 (ABHD6 [9]; 50 μM, 24 h): > 90%
- pIC50 (FAAH [2]; human FAAH): ≤ 6.00
- pIC50 (FAAH [3]): 7.31
- pIC50 (FAAH2): 6.40
- pIC50 (FAAH [4]): 5.12
- pIC50 (ABHD6 [5]): 7.09
- pIC50 (PNPLA6): 4.96
- interaction with other proteins of the endocannabinoid system or endocannabinoid-binding TRP ion channels [6]: did not interact
- pIC50 (FAAH [10]): 7.15 to 7.30

- pIC50 (CES2): 6.20
- pIC50 (FAAH [3]): 7.31
- pIC50 (FAAH2): 7.00
- pIC50 (FAAH [4]): 5.39
- pIC50 (ABHD6 [5]): 7.10
SMILES: CN(C(=O)n1cnc(-c2cccnc2)c1)C1CCCCC1 [BIA 10-2639]
